# Results from the supplement of paper PMC10307832.
# What was measured:
# Test in all cases: relative viability (nuclei count vs DMSO), 5 days (fraction); higher = more cells survive
# A-427 = tested on: A-427
# Procedure, shortened: (§1)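 Cells from lung cancer lines were seeded into 1536-well plates and, one day later, dosed by pin tool. Treatments were either a single drug or a fixed dose of an anchor drug with five library-drug doses (not always all listed) in √10 steps. After 5 days, nuclei were stained in a one-step fixation (final 0.05% Triton X-100, 1% formaldehyde, 1 ug/ml Hoechst) and counted on 4× images, and relative viability is the treated-to-vehicle nuclei ratio, as the median of duplicate plates.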
# HCC-366 = tested on: HCC-366
# Procedure, shortened: as §1
# HCC-827 = tested on: HCC-827
# Procedure, shortened: as §1
# LC-2-ad = tested on: LC-2-ad
# Procedure, shortened: as §1
# LCLC-103H = tested on: LCLC-103H
# Procedure, shortened: as §1
# NCI-H1355 = tested on: NCI-H1355
# Procedure, shortened: as §1
# NCI-H1734 = tested on: NCI-H1734
# Procedure, shortened: as §1
# NCI-H1755 = tested on: NCI-H1755
# Procedure, shortened: as §1
# NCI-H1792 = tested on: NCI-H1792
# Procedure, shortened: as §1
# NCI-H1915 = tested on: NCI-H1915
# Procedure, shortened: as §1
# NCI-H1975 = tested on: NCI-H1975
# Procedure, shortened: as §1
# NCI-H1993 = tested on: NCI-H1993
# Procedure, shortened: as §1
# NCI-H2170 = tested on: NCI-H2170
# Procedure, shortened: as §1
# NCI-H2342 = tested on: NCI-H2342
# Procedure, shortened: as §1
# NCI-H2347 = tested on: NCI-H2347
# Procedure, shortened: as §1
# NCI-H23 = tested on: NCI-H23
# Procedure, shortened: as §1
# NCI-H650 = tested on: NCI-H650
# Procedure, shortened: as §1
# RERF-LC-KJ = tested on: RERF-LC-KJ
# Procedure, shortened: as §1
smiles,measurement,setting,value
CN1CCN(CCOc2cc(OC3CCOCC3)c3c(Nc4c(Cl)ccc5c4OCO5)ncnc3c2)CC1 [Saracatinib] + NC(=O)Nc1cc(-c2cccc(F)c2)sc1C(=O)N[C@H]1CCCNC1 [AZD7762] (partner 0.2 µM),relative viability,A-427; first compound 0.02 µM,0.759
same,relative viability,A-427; first compound 0.2 µM,0.636
same,relative viability,A-427; first compound 0.6325 µM,0.611
same,relative viability,A-427; first compound 2 µM,0.569
same,relative viability,HCC-366; first compound 0.02 µM,0.215
same,relative viability,HCC-366; first compound 0.2 µM,0.0547
same,relative viability,HCC-366; first compound 0.6325 µM,0.216
same,relative viability,HCC-366; first compound 2 µM,0.139
same,relative viability,HCC-827; first compound 0.02 µM,0.223
same,relative viability,HCC-827; first compound 0.2 µM,0.119
same,relative viability,HCC-827; first compound 0.6325 µM,0.145
same,relative viability,HCC-827; first compound 2 µM,0.11
same,relative viability,LC-2-ad; first compound 0.02 µM,0.841
same,relative viability,LC-2-ad; first compound 0.2 µM,0.778
same,relative viability,LC-2-ad; first compound 0.6325 µM,0.835
same,relative viability,LC-2-ad; first compound 2 µM,0.726
same,relative viability,LCLC-103H; first compound 0.02 µM,0.855
same,relative viability,LCLC-103H; first compound 0.2 µM,0.711
same,relative viability,LCLC-103H; first compound 0.6325 µM,0.821
same,relative viability,LCLC-103H; first compound 2 µM,0.772
same,relative viability,NCI-H1355; first compound 0.02 µM,0.769
same,relative viability,NCI-H1355; first compound 0.2 µM,0.564
same,relative viability,NCI-H1355; first compound 0.6325 µM,0.719
same,relative viability,NCI-H1355; first compound 2 µM,0.715
same,relative viability,NCI-H1734; first compound 0.02 µM,0.537
same,relative viability,NCI-H1734; first compound 0.6325 µM,0.622
same,relative viability,NCI-H1734; first compound 2 µM,0.566
same,relative viability,NCI-H1755; first compound 0.02 µM,0.438
same,relative viability,NCI-H1755; first compound 0.2 µM,0.41
same,relative viability,NCI-H1755; first compound 0.6325 µM,0.465
same,relative viability,NCI-H1755; first compound 2 µM,0.372
same,relative viability,NCI-H1792; first compound 0.02 µM,0.618
same,relative viability,NCI-H1792; first compound 0.2 µM,0.542
same,relative viability,NCI-H1792; first compound 0.6325 µM,0.831
same,relative viability,NCI-H1792; first compound 2 µM,0.648
same,relative viability,NCI-H1915; first compound 0.02 µM,0.632
same,relative viability,NCI-H1915; first compound 0.2 µM,0.639
same,relative viability,NCI-H1915; first compound 0.6325 µM,0.684
same,relative viability,NCI-H1915; first compound 2 µM,0.696
same,relative viability,NCI-H1975; first compound 0.02 µM,0.812
same,relative viability,NCI-H1975; first compound 0.2 µM,0.789
same,relative viability,NCI-H1975; first compound 0.6325 µM,0.659
same,relative viability,NCI-H1975; first compound 2 µM,0.468
same,relative viability,NCI-H1993; first compound 0.02 µM,0.836
same,relative viability,NCI-H1993; first compound 0.2 µM,0.719
same,relative viability,NCI-H1993; first compound 0.6325 µM,0.694
same,relative viability,NCI-H1993; first compound 2 µM,0.581
same,relative viability,NCI-H2170; first compound 0.02 µM,0.867
same,relative viability,NCI-H2170; first compound 0.2 µM,0.803
same,relative viability,NCI-H2170; first compound 0.6325 µM,0.872
same,relative viability,NCI-H2170; first compound 2 µM,0.506
same,relative viability,NCI-H2342; first compound 0.02 µM,0.721
same,relative viability,NCI-H2342; first compound 0.2 µM,0.471
same,relative viability,NCI-H2342; first compound 0.6325 µM,0.562
same,relative viability,NCI-H2342; first compound 2 µM,0.515
same,relative viability,NCI-H2347; first compound 0.02 µM,0.828
same,relative viability,NCI-H2347; first compound 0.2 µM,0.663
same,relative viability,NCI-H2347; first compound 0.6325 µM,0.623
same,relative viability,NCI-H2347; first compound 2 µM,0.657
same,relative viability,NCI-H23; first compound 0.02 µM,0.243
same,relative viability,NCI-H23; first compound 0.6325 µM,0.287
same,relative viability,NCI-H23; first compound 2 µM,0.27
same,relative viability,NCI-H650; first compound 0.02 µM,0.984
same,relative viability,NCI-H650; first compound 0.2 µM,1.04
same,relative viability,NCI-H650; first compound 0.6325 µM,0.98
same,relative viability,NCI-H650; first compound 2 µM,0.997
same,relative viability,RERF-LC-KJ; first compound 0.02 µM,1.13
same,relative viability,RERF-LC-KJ; first compound 0.2 µM,0.971
same,relative viability,RERF-LC-KJ; first compound 2 µM,1
Cc1cn(-c2cc(NC(=O)c3ccc(C)c(Nc4nccc(-c5cccnc5)n4)c3)cc(C(F)(F)F)c2)cn1 [Nilotinib] + NC(=O)Nc1cc(-c2cccc(F)c2)sc1C(=O)N[C@H]1CCCNC1 [AZD7762] (partner 0.2 µM),relative viability,A-427; first compound 0.001 µM,0.716
same,relative viability,A-427; first compound 0.003162 µM,0.501
same,relative viability,A-427; first compound 0.01 µM,0.681
same,relative viability,A-427; first compound 0.03162 µM,0.535
same,relative viability,A-427; first compound 0.1 µM,0.338
same,relative viability,HCC-366; first compound 0.001 µM,0.18
same,relative viability,HCC-366; first compound 0.003162 µM,0.231
same,relative viability,HCC-366; first compound 0.01 µM,0.264
same,relative viability,HCC-366; first compound 0.03162 µM,0.204
same,relative viability,HCC-366; first compound 0.1 µM,0.115
same,relative viability,HCC-827; first compound 0.001 µM,0.172
same,relative viability,HCC-827; first compound 0.003162 µM,0.158
same,relative viability,HCC-827; first compound 0.03162 µM,0.177
same,relative viability,HCC-827; first compound 0.1 µM,0.204
same,relative viability,LC-2-ad; first compound 0.001 µM,0.855
same,relative viability,LC-2-ad; first compound 0.003162 µM,1.01
same,relative viability,LC-2-ad; first compound 0.01 µM,1.02
same,relative viability,LC-2-ad; first compound 0.03162 µM,0.748
same,relative viability,LC-2-ad; first compound 0.1 µM,0.377
same,relative viability,LCLC-103H; first compound 0.001 µM,0.861
same,relative viability,LCLC-103H; first compound 0.003162 µM,0.883
same,relative viability,LCLC-103H; first compound 0.01 µM,0.845
same,relative viability,LCLC-103H; first compound 0.03162 µM,0.705
same,relative viability,LCLC-103H; first compound 0.1 µM,0.477
same,relative viability,NCI-H1355; first compound 0.001 µM,0.718
same,relative viability,NCI-H1355; first compound 0.003162 µM,0.782
same,relative viability,NCI-H1355; first compound 0.01 µM,0.801
same,relative viability,NCI-H1355; first compound 0.03162 µM,0.439
same,relative viability,NCI-H1355; first compound 0.1 µM,0.583
same,relative viability,NCI-H1734; first compound 0.001 µM,0.498
same,relative viability,NCI-H1734; first compound 0.003162 µM,0.617
same,relative viability,NCI-H1734; first compound 0.01 µM,0.558
same,relative viability,NCI-H1734; first compound 0.03162 µM,0.387
same,relative viability,NCI-H1734; first compound 0.1 µM,0.219
same,relative viability,NCI-H1755; first compound 0.001 µM,0.412
same,relative viability,NCI-H1755; first compound 0.003162 µM,0.499
same,relative viability,NCI-H1755; first compound 0.01 µM,0.399
same,relative viability,NCI-H1755; first compound 0.03162 µM,0.352
same,relative viability,NCI-H1755; first compound 0.1 µM,0.4
same,relative viability,NCI-H1792; first compound 0.001 µM,0.483
same,relative viability,NCI-H1792; first compound 0.003162 µM,0.638
same,relative viability,NCI-H1792; first compound 0.01 µM,0.467
same,relative viability,NCI-H1792; first compound 0.03162 µM,0.385
same,relative viability,NCI-H1792; first compound 0.1 µM,0.263
same,relative viability,NCI-H1915; first compound 0.001 µM,0.682
same,relative viability,NCI-H1915; first compound 0.003162 µM,0.683
same,relative viability,NCI-H1915; first compound 0.01 µM,0.718
same,relative viability,NCI-H1915; first compound 0.03162 µM,0.67
same,relative viability,NCI-H1915; first compound 0.1 µM,0.619
same,relative viability,NCI-H1975; first compound 0.001 µM,0.622
same,relative viability,NCI-H1975; first compound 0.003162 µM,0.571
same,relative viability,NCI-H1975; first compound 0.01 µM,0.744
same,relative viability,NCI-H1975; first compound 0.03162 µM,0.613
same,relative viability,NCI-H1975; first compound 0.1 µM,0.667
same,relative viability,NCI-H1993; first compound 0.001 µM,0.875
same,relative viability,NCI-H1993; first compound 0.003162 µM,0.803
same,relative viability,NCI-H1993; first compound 0.01 µM,0.819
same,relative viability,NCI-H1993; first compound 0.03162 µM,0.754
same,relative viability,NCI-H1993; first compound 0.1 µM,0.559
same,relative viability,NCI-H2170; first compound 0.001 µM,0.744
same,relative viability,NCI-H2170; first compound 0.003162 µM,1.32
same,relative viability,NCI-H2170; first compound 0.01 µM,0.856
same,relative viability,NCI-H2170; first compound 0.03162 µM,0.602
same,relative viability,NCI-H2170; first compound 0.1 µM,0.758
same,relative viability,NCI-H2342; first compound 0.001 µM,0.425
same,relative viability,NCI-H2342; first compound 0.003162 µM,0.315
same,relative viability,NCI-H2342; first compound 0.01 µM,0.411
same,relative viability,NCI-H2342; first compound 0.03162 µM,0.463
same,relative viability,NCI-H2342; first compound 0.1 µM,0.427
same,relative viability,NCI-H2347; first compound 0.001 µM,0.691
same,relative viability,NCI-H2347; first compound 0.003162 µM,0.597
same,relative viability,NCI-H2347; first compound 0.01 µM,0.748
same,relative viability,NCI-H2347; first compound 0.03162 µM,0.567
same,relative viability,NCI-H2347; first compound 0.1 µM,0.596
same,relative viability,NCI-H23; first compound 0.001 µM,0.186
same,relative viability,NCI-H23; first compound 0.003162 µM,0.221
same,relative viability,NCI-H23; first compound 0.01 µM,0.154
same,relative viability,NCI-H23; first compound 0.03162 µM,0.152
same,relative viability,NCI-H23; first compound 0.1 µM,0.122
same,relative viability,NCI-H650; first compound 0.001 µM,1.08
same,relative viability,NCI-H650; first compound 0.003162 µM,1.01
same,relative viability,NCI-H650; first compound 0.01 µM,0.914
same,relative viability,NCI-H650; first compound 0.03162 µM,0.918
same,relative viability,NCI-H650; first compound 0.1 µM,0.721
same,relative viability,RERF-LC-KJ; first compound 0.001 µM,0.834
same,relative viability,RERF-LC-KJ; first compound 0.003162 µM,1.02
same,relative viability,RERF-LC-KJ; first compound 0.01 µM,1.16
same,relative viability,RERF-LC-KJ; first compound 0.03162 µM,0.598
same,relative viability,RERF-LC-KJ; first compound 0.1 µM,0.427
